Read-outs that look alike come from different tables or passages of the source.

The values below come from paper PMC7311409, “Crystal structures of SAMHD1 inhibitor complexes reveal the mechanism of water-mediated dNTP hydrolysis” (Nature Communications, 2020).

For assay [1], the target named is T1, SAMHD1 (Homo sapiens, UniProt Q9Y3Z3). Description: MDCC-PBP/Ppx1 coupled triphosphohydrolase assay, competitive inhibition of TTP hydrolysis, global fit; SEC-MALLS tetramerisation. Format: biochemical. More on the design: wt-SAMHD1(1-626).
Target sequence in this assay (Q9Y3Z3 whole entry): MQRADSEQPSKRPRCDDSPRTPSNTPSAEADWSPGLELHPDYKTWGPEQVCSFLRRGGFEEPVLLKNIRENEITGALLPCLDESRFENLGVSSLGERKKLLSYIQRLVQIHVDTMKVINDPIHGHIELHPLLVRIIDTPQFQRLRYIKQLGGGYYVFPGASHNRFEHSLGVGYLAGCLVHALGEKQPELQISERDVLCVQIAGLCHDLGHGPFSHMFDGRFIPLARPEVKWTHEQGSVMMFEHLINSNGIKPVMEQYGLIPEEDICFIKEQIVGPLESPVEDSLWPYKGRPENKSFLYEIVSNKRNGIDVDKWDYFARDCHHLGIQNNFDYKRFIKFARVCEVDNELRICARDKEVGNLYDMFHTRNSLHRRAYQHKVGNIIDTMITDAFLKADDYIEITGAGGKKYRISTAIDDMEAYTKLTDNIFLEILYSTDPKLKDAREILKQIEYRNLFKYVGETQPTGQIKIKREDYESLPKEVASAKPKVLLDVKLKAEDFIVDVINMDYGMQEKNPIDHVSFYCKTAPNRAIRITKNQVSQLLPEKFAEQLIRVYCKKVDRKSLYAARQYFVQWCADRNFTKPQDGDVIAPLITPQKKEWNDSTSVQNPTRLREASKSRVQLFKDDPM
Assay [2] concerns the target T2, SAMHD1 (Homo sapiens, UniProt Q9Y3Z3, D137N).
T2 construct: residues 109-626
Description: X-ray co-crystal structure. Format: binding.

Assay [3] concerns the target T2, SAMHD1. Description: X-ray co-crystal structure; activation of dNTP hydrolysis. Format: binding.
Assay [4] addresses T1, SAMHD1. Also on record: wt-SAMHD1(1-626); MDCC-PBP phosphate sensor coupled SAMHD1-Ppx1 assay, competitive inhibition of TTP hydrolysis, global fit. The conditions noted are these: GTP-activated, substrate TTP 0.1-1 mM, pH 8.0, 25 °C; inhibitor. Here is the method:
To obtain quantitative kinetic parameters for substrate hydrolysis (KM and kcat) and for inhibition by dNMPNPP analogues (Ki) a coupled assay was employed utilising the biosensor MDCC-PBP[90],[91] to measure phosphate release from combined SAMHD1 triphosphohydrolase and S. cerevisiae Ppx1 exopolyphosphatase activity. In a typical experiment, solutions containing wt-SAMHD1(1-626), Ppx1, MDCC-PBP and GTP were incubated for 5 min in assay buffer (20 mM Tris pH 8.0, 150 mM NaCl, 5 mM MgCl2 and 2 mM TCEP) at 25 °C before the reaction was initiated by the addition of nucleotides and nucleotide analogues. The final concentrations were 0.2 µM SAMHD1, 0.01 µM Ppx1, 40 µM MDCC-PBP, 0.2 mM GTP and varying concentrations of dNTP substrates and analogues. The fluorescence intensity was recorded at 430 nm excitation and 465 nm emission over a period of 10–30 min in a Clariostar multiwell plate reader (BMG Labtech). […] Apparent dissociation constants for substrate binding (KM) and catalytic constants (kcat) were then determined by non-linear least-squares fitting using a hyperbolic function in the software package Prism 7 (Graphpad). […] The fitting was performed with a fixed value of KM for GTP-activated TTP hydrolysis, determined previously[35] and only kcat and Ki were allowed to vary. […]
Target sequence in this assay (Q9Y3Z3 whole entry): as above

In assay [5] the target is T1, SAMHD1. The experiment in a line: X-ray co-crystal structure; competitive inhibition in coupled enzyme assay. The format is binding. More on the design: residues 109-626 (crystal).
Target sequence in this assay (Q9Y3Z3 109-626): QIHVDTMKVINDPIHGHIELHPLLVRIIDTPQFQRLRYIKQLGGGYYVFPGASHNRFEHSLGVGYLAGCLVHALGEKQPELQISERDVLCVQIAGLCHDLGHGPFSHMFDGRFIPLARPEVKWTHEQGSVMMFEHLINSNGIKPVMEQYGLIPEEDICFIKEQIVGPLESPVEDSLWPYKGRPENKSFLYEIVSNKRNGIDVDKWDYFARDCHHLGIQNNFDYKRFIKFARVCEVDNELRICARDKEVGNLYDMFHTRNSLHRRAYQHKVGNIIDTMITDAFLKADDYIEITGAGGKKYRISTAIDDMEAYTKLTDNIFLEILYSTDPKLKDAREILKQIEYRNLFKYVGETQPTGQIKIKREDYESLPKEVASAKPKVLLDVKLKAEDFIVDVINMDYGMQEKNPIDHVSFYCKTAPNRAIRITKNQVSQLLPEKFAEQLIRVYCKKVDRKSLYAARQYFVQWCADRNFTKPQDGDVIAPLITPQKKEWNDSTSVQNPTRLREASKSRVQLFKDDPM

T2 sequence (Q9Y3Z3 109-626 D137N): as the sequence (Q9Y3Z3 109-626) above, with D29N counted along it

The term Ki denotes a measure of affinity in units of concentration, obtained from inhibition or displacement. Low readings indicate a stronger hold on the target, high ones a looser hold on the target. `Nc1nc2c(ncn2[C@H]2C[C@H](O)[C@@H](COP(=O)(O)NP(=O)(O)OP(=O)(O)O)O2)c(=O)[nH]1` [dGMPNPP] returned a Ki at SAMHD1 [1] of 52 nM. At SAMHD1 [2], the X-ray co-crystal structure result is “(ii) XTP (AL1) and dGMPNPP (AL2 and active site)”.

With `O=c1[nH]c(=O)c2ncn([C@@H]3O[C@H](COP(=O)(O)OP(=O)(O)OP(=O)(O)O)[C@@H](O)[C@H]3O)c2[nH]1` [XTP], the “X-ray co-crystal structure; activation of dNTP hydrolysis” value on SAMHD1 [3] is listed as “D137N-SAMHD1 is activated by xanthosine-5′-triphosphate (XTP) rather than GTP through AL1-binding”.

Regarding `Nc1ccn([C@H]2C[C@H](O)[C@@H](COP(=O)(O)NP(=O)(O)OP(=O)(O)O)O2)c(=O)n1` [dCMPNPP], on SAMHD1 [4], the Ki stood at 73 ± 3 nM.

Take `Cc1cn([C@H]2C[C@H](O)[C@@H](COP(=O)(O)NP(=O)(O)OP(=O)(O)O)O2)c(=O)[nH]c1=O` [TMPNPP]: the Ki at SAMHD1 [4] is 370 ± 20 nM. The X-ray co-crystal structure result at SAMHD1 [5] was “(ii) GTP (AL1), dATP (AL2) and TMPNPP (active site)”.

`Nc1ncnc2c1ncn2[C@H]1C[C@H](O)[C@@H](COP(=O)(O)NP(=O)(O)OP(=O)(O)O)O1` [dAMPNPP] had a Ki on SAMHD1 [1] of 780 nM.
